According to ChEMBL document CHEMBL1201862, “PubChem BioAssay data set” (2004):
Active and inactive are the calls of the source.

Legend:
[1] = target: Cytochrome P450 3A4 (Homo sapiens, UniProt P08684); conditions: Potency;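 note: confirmatory qHTS run detecting inhibitors and substrates of CYP3A4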
[2] = system: HEK293; assay: cells; assay type: functional, cell-based; conditions: Homo sapiens
[3] = system: HEK293; assay: NOD2 signaling inhibitors in MDP-stimulated cells, cell-based, uHTS, luminescence (AID 2001); assay type: functional; conditions: Homo sapiens
[4] = system: HEK293; assay: cells; assay type: functional, cell-based; conditions: Homo sapiens; remark: listed apart in the source
[5] = target: T1, Protein RecA (Mycobacterium tuberculosis, UniProt P9WHJ3); assay: Fluorescence Cell-Free Homogeneous Dose Retest to Identify Inhibitors of RecA-Intein Splicing Activity. [Related pubchem assays (depositor defined):AID2097, AID2223, AID489010, AID492950]; assay type: functional
T1 sequence (P9WHJ3 whole entry): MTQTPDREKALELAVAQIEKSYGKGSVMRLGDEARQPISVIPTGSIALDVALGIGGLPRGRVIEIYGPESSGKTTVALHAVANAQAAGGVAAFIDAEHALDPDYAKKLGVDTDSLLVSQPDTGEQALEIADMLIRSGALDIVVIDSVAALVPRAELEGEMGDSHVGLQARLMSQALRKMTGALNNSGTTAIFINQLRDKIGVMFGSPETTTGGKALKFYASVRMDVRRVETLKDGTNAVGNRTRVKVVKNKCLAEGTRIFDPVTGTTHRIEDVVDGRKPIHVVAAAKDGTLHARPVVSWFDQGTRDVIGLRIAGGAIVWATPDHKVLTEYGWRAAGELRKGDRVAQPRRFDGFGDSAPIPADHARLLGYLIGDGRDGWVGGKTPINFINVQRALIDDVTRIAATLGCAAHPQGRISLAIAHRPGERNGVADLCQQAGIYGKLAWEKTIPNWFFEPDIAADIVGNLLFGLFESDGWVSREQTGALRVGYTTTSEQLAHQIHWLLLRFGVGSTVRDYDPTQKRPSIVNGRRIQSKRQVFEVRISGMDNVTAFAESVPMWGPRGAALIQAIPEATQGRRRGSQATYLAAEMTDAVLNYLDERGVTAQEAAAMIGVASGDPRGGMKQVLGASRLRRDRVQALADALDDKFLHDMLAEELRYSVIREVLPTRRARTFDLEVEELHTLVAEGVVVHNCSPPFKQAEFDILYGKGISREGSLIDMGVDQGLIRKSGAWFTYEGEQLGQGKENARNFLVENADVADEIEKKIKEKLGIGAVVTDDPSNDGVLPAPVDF

[6] = system: INS1; assay: beta cell apoptosis inhibitors, cytokine rescue, dose response, luminescence, retest (AID 449756); assay type: functional, cell-based; conditions: Rattus norvegicus;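 note: cell death triggered by IL-1 beta plus TNF-alpha plus IFN-gamma mixture; protective hits raise ATP signal compared with cytokine alone wells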
[7] = system: HEK293; assay: NOD1 signaling inhibitors, primary screen, cell-based, luminescence, uHTS (AID 1578); assay type: functional; conditions: Homo sapiens
[8] = target: T2, Replicative DNA helicase DnaB (Mycobacterium tuberculosis, UniProt P9WMR3); assay: DnaB intein splicing inhibitors, dose response, biochemical, cell-free fluorescence (AID 449749); assay type: functional
T2 sequence (P9WMR3 whole entry): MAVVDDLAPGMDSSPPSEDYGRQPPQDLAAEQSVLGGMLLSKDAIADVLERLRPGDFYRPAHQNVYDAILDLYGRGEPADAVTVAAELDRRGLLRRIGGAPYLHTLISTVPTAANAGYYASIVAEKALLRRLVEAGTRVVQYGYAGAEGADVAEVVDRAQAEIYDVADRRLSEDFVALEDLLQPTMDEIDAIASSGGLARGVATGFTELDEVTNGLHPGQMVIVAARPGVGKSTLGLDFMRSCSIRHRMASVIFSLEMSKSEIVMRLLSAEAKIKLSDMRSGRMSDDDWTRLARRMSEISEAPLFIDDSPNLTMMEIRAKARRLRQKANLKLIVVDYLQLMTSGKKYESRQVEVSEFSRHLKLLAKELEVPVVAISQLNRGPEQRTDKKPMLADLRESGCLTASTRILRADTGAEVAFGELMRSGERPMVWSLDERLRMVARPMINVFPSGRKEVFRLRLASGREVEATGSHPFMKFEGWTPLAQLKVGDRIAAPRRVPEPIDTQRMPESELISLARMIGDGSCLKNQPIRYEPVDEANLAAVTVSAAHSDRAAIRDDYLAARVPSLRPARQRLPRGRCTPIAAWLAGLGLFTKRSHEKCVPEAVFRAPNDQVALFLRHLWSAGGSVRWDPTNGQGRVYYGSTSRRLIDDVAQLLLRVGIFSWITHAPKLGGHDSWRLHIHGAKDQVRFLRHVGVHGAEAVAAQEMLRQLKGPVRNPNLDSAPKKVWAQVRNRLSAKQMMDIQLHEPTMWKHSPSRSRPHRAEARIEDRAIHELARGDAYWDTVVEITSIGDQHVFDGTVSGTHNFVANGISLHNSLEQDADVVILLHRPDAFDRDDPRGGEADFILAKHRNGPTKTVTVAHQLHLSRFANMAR

[9] = intracellular Trypanosoma cruzi inhibitors in host cells – cell-based, plate reader, cherry-pick samples, set 3, dose response (AID 651818); assay type: functional;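 note: compounds incubated with infected cells for about four days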
[10] = target: T3, Short transient receptor potential channel 4 (Mus musculus, UniProt Q9QUQ5); assay: mouse TRPC4 channel inhibitors, dose response, cell-based, HEK293 TRPC4/mu-opioid, Fluo-4 calcium (AID 434942); assay type: functional;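 note: potency of inhibitors blocking the TRPC4 calcium response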
T3 sequence (Q9QUQ5 whole entry): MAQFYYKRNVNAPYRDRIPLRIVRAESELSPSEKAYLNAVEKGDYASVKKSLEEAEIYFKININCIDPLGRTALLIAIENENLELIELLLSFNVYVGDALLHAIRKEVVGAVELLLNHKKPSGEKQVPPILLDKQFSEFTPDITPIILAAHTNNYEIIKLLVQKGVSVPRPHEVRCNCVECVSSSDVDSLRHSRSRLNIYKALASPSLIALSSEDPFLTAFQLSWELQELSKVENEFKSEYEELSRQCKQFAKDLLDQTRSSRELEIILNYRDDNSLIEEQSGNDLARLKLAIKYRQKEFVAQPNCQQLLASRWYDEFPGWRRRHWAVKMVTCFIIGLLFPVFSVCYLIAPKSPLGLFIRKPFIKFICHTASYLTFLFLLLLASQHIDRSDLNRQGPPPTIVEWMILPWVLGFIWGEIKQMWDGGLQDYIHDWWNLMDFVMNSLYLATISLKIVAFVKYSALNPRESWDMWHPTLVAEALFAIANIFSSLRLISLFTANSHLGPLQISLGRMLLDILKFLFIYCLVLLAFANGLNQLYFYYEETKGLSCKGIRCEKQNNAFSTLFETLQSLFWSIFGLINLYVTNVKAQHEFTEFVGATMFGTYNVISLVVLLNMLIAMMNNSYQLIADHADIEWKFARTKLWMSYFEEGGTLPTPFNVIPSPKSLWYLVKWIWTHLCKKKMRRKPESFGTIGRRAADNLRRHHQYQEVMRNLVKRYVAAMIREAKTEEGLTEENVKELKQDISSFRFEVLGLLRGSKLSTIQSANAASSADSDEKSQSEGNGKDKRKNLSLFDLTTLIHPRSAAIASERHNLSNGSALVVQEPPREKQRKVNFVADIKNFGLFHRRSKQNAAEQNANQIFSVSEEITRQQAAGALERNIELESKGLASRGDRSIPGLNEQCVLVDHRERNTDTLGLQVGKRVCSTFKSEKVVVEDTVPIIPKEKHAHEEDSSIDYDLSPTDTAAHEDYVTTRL

[11] = cytotoxicity toward DRD oncogenic fibroblasts, dose response, cell-based, non-viral oncogenic, luminescence (AID 1934); assay type: functional; conditions: Homo sapiens
[12] = cytotoxicity in HEK-293T cells, dose response, cytotoxicity control for TCR NF-kB inhibitor project, luminescence, T-cell screen hits (AID 489026); assay type: functional, cell-based;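 note: cells exposed to compound about 14 hours before the viability readout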
[13] = system: BJ; assay: cytotoxicity toward BJ-TERT fibroblasts, dose response, cell-based, RAS-independent, luminescence (AID 1933); assay type: functional; conditions: Homo sapiens
[14] = system: BJ; assay: cells; assay type: functional, cell-based; conditions: Homo sapiens
[15] = system: BJ; assay: cytotoxicity toward BJ-TERT-LT-ST fibroblasts, dose response, cell-based, RAS-independent, luminescence (AID 1935); assay type: functional; conditions: Homo sapiens;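 note: BJ fibroblasts immortalized with TERT plus LT and ST oncogenes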
[16] = target: Luciferin 4-monooxygenase (Photinus pyralis, UniProt P08659); assay: firefly luciferase enzyme inhibitors, dose response, biochemical, luminescence (AID 1891)
Luciferin 4-monooxygenase, sequence (P08659 whole entry): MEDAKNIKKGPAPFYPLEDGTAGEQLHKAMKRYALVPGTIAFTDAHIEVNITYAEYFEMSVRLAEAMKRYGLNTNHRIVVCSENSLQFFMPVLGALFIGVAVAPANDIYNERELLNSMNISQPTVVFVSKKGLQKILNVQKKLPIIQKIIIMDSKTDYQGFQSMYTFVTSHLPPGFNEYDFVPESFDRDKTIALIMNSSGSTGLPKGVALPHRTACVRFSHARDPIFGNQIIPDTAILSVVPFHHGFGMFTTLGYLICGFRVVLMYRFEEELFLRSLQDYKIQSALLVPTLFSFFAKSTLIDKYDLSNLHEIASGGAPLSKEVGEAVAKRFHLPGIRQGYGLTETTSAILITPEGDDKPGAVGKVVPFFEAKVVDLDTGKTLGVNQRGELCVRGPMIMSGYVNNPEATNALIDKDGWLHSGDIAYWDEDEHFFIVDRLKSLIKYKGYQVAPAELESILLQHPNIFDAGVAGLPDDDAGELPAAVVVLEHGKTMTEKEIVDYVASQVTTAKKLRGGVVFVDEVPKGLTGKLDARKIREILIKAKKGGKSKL

[17] = Luminescence Cell-Based Dose Confirmation HTS to Identify Inhibitors of Platelet Dense Granule Release. [Related pubchem assays: 1663 (Primary HTS), 1678 (Summary of Project)]; assay type: functional
[18] = target: Protein Wnt-3a (Mus musculus, UniProt P27467); assay: Wnt3a-driven reporter signaling inhibition, dose response, selectivity assay for Gli-SUFU antagonist project, Wnt-LIGHT cells, luminescence (AID 651570); assay type: functional; conditions: read-out: IC50_Mean;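 note: Wnt-LIGHT reporter cells stimulated with conditioned medium from Wnt3a-producing cells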
Protein Wnt-3a, sequence (P27467 whole entry): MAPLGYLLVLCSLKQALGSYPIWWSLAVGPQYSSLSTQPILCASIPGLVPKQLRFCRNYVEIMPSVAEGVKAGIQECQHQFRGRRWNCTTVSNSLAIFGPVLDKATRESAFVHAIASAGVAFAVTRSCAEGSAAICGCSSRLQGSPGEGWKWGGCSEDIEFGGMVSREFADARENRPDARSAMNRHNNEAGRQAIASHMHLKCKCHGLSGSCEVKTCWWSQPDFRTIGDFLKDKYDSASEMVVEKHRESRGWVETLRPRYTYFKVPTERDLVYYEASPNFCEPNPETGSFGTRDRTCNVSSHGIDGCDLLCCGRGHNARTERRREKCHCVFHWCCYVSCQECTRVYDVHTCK

Cytochrome P450 3A4, sequence (P08684 whole entry): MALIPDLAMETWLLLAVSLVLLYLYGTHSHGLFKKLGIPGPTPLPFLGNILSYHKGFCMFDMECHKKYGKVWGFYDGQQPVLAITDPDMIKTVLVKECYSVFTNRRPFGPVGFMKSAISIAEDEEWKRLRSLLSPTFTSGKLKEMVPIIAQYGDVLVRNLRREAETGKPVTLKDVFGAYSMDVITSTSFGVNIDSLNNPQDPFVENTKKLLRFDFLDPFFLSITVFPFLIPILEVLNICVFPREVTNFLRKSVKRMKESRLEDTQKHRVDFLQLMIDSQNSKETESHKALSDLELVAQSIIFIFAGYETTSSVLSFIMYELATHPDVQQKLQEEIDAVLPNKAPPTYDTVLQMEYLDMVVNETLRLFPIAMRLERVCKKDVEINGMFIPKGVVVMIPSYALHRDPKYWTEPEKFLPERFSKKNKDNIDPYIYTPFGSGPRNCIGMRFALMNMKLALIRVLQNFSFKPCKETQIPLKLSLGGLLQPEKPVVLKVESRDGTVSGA

Compound: CC[C@]1(O)CC(O[C@@H]2CC(N(C)C)C(O)C(C)O2)c2c(cc3c(c2O)C(=O)c2c(O)cccc2C3=O)C1C(=O)OC (stereo partly specified)
- AC50 [1]: 39.8 µM (inconclusive)

Compound: O=C(C(Cl)Cl)N1c2ccccc2OCC1c1ccccc1 (stereo unspecified)
- IC50 [2]: 16.9 µM (active)
- IC50 [3]: > 20 µM (inactive)
- IC50 [4]: > 20 µM (inactive)
- EC50 [5]: 1.25 µM (active)
- AC50 [6]: 8.54 µM (active)
- EC50 [7]: 13.8 µM (active)
- AC50 [8]: 10 µM (active)

Compound: CC(Sc1n[nH]c2c3ccccc3nc-2n1)C(=O)N(C)C1CCCCC1 (stereo unspecified)
- IC50 [2]: 6.41 µM (active)
- IC50 [3]: 6.67 µM (active)
- IC50 [4]: 12.9 µM (active)
- AC50 [6]: 16.1 µM (active)
- EC50 [7]: 4.74 µM (active)

Compound: C[C@H](CO)N1C[C@H](C)[C@H](CN(C)Cc2ccc(C(F)(F)F)cc2)Oc2ccc(NC(=O)Nc3ccc(C(F)(F)F)cc3)cc2CC1=O
- AC50 [9]: 2.66 µM (active)

Compound: Nc1nc(/C(=C/CC(=O)O)C(=O)NC2C(=O)N3C(C(=O)O)=CCSC23)cs1 (stereo unspecified)
- AC50 [1]: 31.6 µM (inconclusive)

Compound: CCN(CC)Cc1cc(CCNC(=O)c2ccc(Cl)cc2)ccc1O
- EC50 [10]: 4.73 µM (active)

Compound: CCOc1ccc(N(CC(=O)Nc2ccccc2C)S(=O)(=O)c2c(C)noc2C)cc1
- EC50 [11]: 4.15 µM (active)
- IC50 [12]: > 80 µM (inactive)
- EC50 [13]: 5.06 µM (active)
- EC50 [14]: 29.9 µM (active)
- EC50 [15]: 16.9 µM (active)

Compound: OCCNCc1cc(Br)ccc1OCc1ccc(F)cc1
- EC50 [10]: 1.88 µM (active)

Compound: CCCCC(=O)N(c1ccc(C(=O)O)cc1)c1nc(-c2ccc(Cl)cc2)c(CC)s1
- EC50 [16]: > 112 µM (not active)
- EC50 [17]: > 112 µM (not active)
- EC50 [10]: 10.6 µM (active)

Compound: COc1ccc(CN(C)C[C@H]2Oc3ccc(NC(=O)Cc4cn(C)c5ccccc45)cc3CC(=O)N([C@@H](C)CO)C[C@@H]2C)cc1
- AC50 [9]: 3.08 µM (active)

Compound: CC(=O)C1CCC2C3CC(C)C4=CC(=O)CC[C@@]4(C)C3C(O)C[C@@]12C (stereo partly specified)
- AC50 [1]: 31.6 µM (inconclusive)

Compound: CC1CC(O)[C@]2(O)[C@]13CC(=O)OC[C@@]2(C)[C@@](C)(O)C(=O)C3 (stereo partly specified)
- AC50 [1]: 31.6 µM (inconclusive)

Compound: CC(C)(C)OC(=O)NCCCCCc1cn(CC(=O)NCCCCCCCCCCC(=O)N2CCN(C(=O)OC(C)(C)C)CC2)nn1
- IC50 [12]: > 80 µM (inactive)
- IC50 [18]: 21.9 µM (inactive)

Compound: C[C@@H]1CN([C@H](C)CO)C(=O)c2cccc(NS(=O)(=O)c3ccc(F)cc3)c2O[C@@H]1CN(C)Cc1ccc(C(=O)Nc2ccccc2N)cc1
- AC50 [9]: 2.86 µM (active)
